# Reference: patent US20110038885A1, “CHEMOKINE ANALOGS” (priority 2007, published 2011)
# Bridge positions count the residues as written; N and C are the ends. Square brackets hold non-standard residues; d marks the D form. Peptide text beside a SMILES is read from it. * marks the point of attachment. Octanoyl = CCCCCCCC(=O)*; Aoc = NCCCCCCCC(=O)O; Ahx = NCCCCCC(=O)O; GABA = NCCCC(=O)O
# Assays:
# [1] = system: MCP-1; assay: In vitro chemotaxis (trans-well migration) v MCP-1; format: cell-based, human
# How it was run: (§1)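 Trans-well migration toward IL-8 or MCP-1 placed below, with agent added to THP-1 cells (10^4-10^6) in the top well and incubation at 37° C (e.g. 4 hours). MTT absorbance at 595 nm, interpolated on a cell standard curve, gives migrated cell numbers; TGFβ-type negative control and cytotoxicity check included.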
# [2] = system: IL-8; assay: In vitro chemotaxis, inhibition v IL-8; format: cell-based, human; set-up: concentration or dose not given beside the values
# How it was run: as §1
structure (smiles),measurement,setting,value
"CC[C@@H](C)[C@H]1NC(=O)[C@@H](CCC(N)=O)NC(=O)[C@H](N)CSSC[C@H](C(=O)NCCCCCCCC(=O)O)NC(=O)[C@@H](CC(C)C)NC(=O)[C@@H](CC(=O)O)NC(=O)[C@H]2CCCN2C(=O)[C@@H](CCCCN)NC(=O)[C@@H](CCC(N)=O)NC(=O)[C@@H](CCCCN)NC(=O)[C@@H](Cc2c[nH]c3ccccc23)NC1=O [Example 139, c(D-Cys-D-Gln-D-Ile-D-Trp-D-Lys-D-Gln-D-Lys-D-Pro-D-Asp-D-Leu-D-Cys)-Aoc-OH] (H-[dC][dQ][dI][dW][dK][dQ][dK][dP][dD][dL][dC][Aoc]-OH; disulfide 1-11)",EC50,[1],100 nM
same,v IL-8 inhibition (%),[2],47.0%
"CC[C@@H](C)[C@H]1NC(=O)[C@@H](CCC(N)=O)NC(=O)[C@H](N)CSSC[C@H](C(=O)N[C@H](C(=O)N[C@@H](CCC(=O)O)C(=O)NCCCCCCCC(=O)O)[C@@H](C)CC)NC(=O)[C@@H](CC(C)C)NC(=O)[C@@H](CC(=O)O)NC(=O)[C@H]2CCCN2C(=O)[C@@H](CCCCN)NC(=O)[C@@H](CCC(N)=O)NC(=O)[C@@H](CCCCN)NC(=O)[C@@H](Cc2c[nH]c3ccccc23)NC1=O [Example 140, c(D-Cys-D-Gln-D-Ile-D-Trp-D-Lys-D-Gln-D-Lys-D-Pro-D-Asp-D-Leu-D-Cys)-Ile-Glu-Aoc-OH] (H-[dC][dQ][dI][dW][dK][dQ][dK][dP][dD][dL][dC]IE[Aoc]-OH; disulfide 1-11)",EC50,[1],400 nM
same,v IL-8 inhibition (%),[2],43.4%
"CC[C@@H](C)[C@H]1NC(=O)[C@@H](CCC(N)=O)NC(=O)[C@H](N)CSSC[C@H](C(=O)N[C@@H](C(=O)N[C@H](CCC(=O)O)C(=O)NCCCCCCCC(=O)O)C(C)C)NC(=O)[C@@H](CC(C)C)NC(=O)[C@@H](CC(=O)O)NC(=O)[C@H]2CCCN2C(=O)[C@@H](CCCCN)NC(=O)[C@@H](CCC(N)=O)NC(=O)[C@@H](CCCCN)NC(=O)[C@@H](Cc2c[nH]c3ccccc23)NC1=O [Example 141, c(D-Cys-D-Gln-D-Ile-D-Trp-D-Lys-D-Gln-D-Lys-D-Pro-D-Asp-D-Leu-D-Cys)-D-Val-D-Glu-Aoc-OH] (H-[dC][dQ][dI][dW][dK][dQ][dK][dP][dD][dL][dC][dV][dE][Aoc]-OH; disulfide 1-11)",EC50,[1],330 nM
same,v IL-8 inhibition (%),[2],27.5%
"CC[C@@H](C)[C@H]1NC(=O)[C@@H](CCC(N)=O)NC(=O)[C@H](N)CSSC[C@H](C(=O)NCCCC(=O)O)NC(=O)[C@@H](CC(C)C)NC(=O)[C@@H](CC(=O)O)NC(=O)[C@H]2CCCN2C(=O)[C@@H](CCCCN)NC(=O)[C@@H](CCC(N)=O)NC(=O)[C@@H](CCCCN)NC(=O)[C@@H](Cc2c[nH]c3ccccc23)NC1=O [Example 142, c(D-Cys-D-Gln-D-Ile-D-Trp-D-Lys-D-Gln-D-Lys-D-Pro-D-Asp-D-Leu-D-Cys)-Gaba-OH] (H-[dC][dQ][dI][dW][dK][dQ][dK][dP][dD][dL][dC][GABA]-OH; disulfide 1-11)",EC50,[1],20 nM
same,v IL-8 inhibition (%),[2],107.3%
"CC[C@@H](C)[C@H]1NC(=O)[C@@H](CCC(N)=O)NC(=O)[C@H](N)CSSC[C@H](C(=O)NCCCCCC(=O)O)NC(=O)[C@@H](CC(C)C)NC(=O)[C@@H](CC(=O)O)NC(=O)[C@H]2CCCN2C(=O)[C@@H](CCCCN)NC(=O)[C@@H](CCC(N)=O)NC(=O)[C@@H](CCCCN)NC(=O)[C@@H](Cc2c[nH]c3ccccc23)NC1=O [Example 143, c(D-Cys-D-Gln-D-Ile-D-Trp-D-Lys-D-Gln-D-Lys-D-Pro-D-Asp-D-Leu-D-Cys)-Ahx-OH] (H-[dC][dQ][dI][dW][dK][dQ][dK][dP][dD][dL][dC][Ahx]-OH; disulfide 1-11)",EC50,[1],30 nM
same,v IL-8 inhibition (%),[2],103.5%
"CC[C@@H](C)[C@H]1NC(=O)[C@@H](CCC(N)=O)NC(=O)[C@H](N)CSSC[C@H](C(=O)N[C@@H](CC(=O)O)C(=O)NCCCCCCCC(=O)O)NC(=O)[C@@H](CC(C)C)NC(=O)[C@@H](CC(=O)O)NC(=O)[C@H]2CCCN2C(=O)[C@@H](CCCCN)NC(=O)[C@@H](CCC(N)=O)NC(=O)[C@@H](CCCCN)NC(=O)[C@@H](Cc2c[nH]c3ccccc23)NC1=O [Example 144, c(D-Cys-D-Gln-D-Ile-D-Trp-D-Lys-D-Gln-D-Lys-D-Pro-D-Asp-D-Leu-D-Cys)-Asp-Aoc-OH] (H-[dC][dQ][dI][dW][dK][dQ][dK][dP][dD][dL][dC]D[Aoc]-OH; disulfide 1-11)",EC50,[1],3000 nM
same,v IL-8 inhibition (%),[2],25.4%
"CC[C@@H](C)[C@H]1NC(=O)[C@@H](CCC(N)=O)NC(=O)[C@H](N)CSSC[C@H](C(=O)N[C@@H](CCC(=O)O)C(=O)NCCCCCCCC(=O)O)NC(=O)[C@@H](CC(C)C)NC(=O)[C@@H](CC(=O)O)NC(=O)[C@H]2CCCN2C(=O)[C@@H](CCCCN)NC(=O)[C@@H](CCC(N)=O)NC(=O)[C@@H](CCCCN)NC(=O)[C@@H](Cc2c[nH]c3ccccc23)NC1=O [Example 145, c(D-Cys-D-Gln-D-Ile-D-Trp-D-Lys-D-Gln-D-Lys-D-Pro-D-Asp-D-Leu-D-Cys)-Glu-Aoc-OH] (H-[dC][dQ][dI][dW][dK][dQ][dK][dP][dD][dL][dC]E[Aoc]-OH; disulfide 1-11)",EC50,[1],200 nM
same,v IL-8 inhibition (%),[2],23.8%
"CCCCCCCC(=O)NCCCC[C@H](NC(=O)[C@@H](CC(=O)O)NC(=O)[C@H]1CSSC[C@@H](N)C(=O)N[C@H](CCC(N)=O)C(=O)N[C@H]([C@H](C)CC)C(=O)N[C@H](Cc2c[nH]c3ccccc23)C(=O)N[C@H](CCCCN)C(=O)N[C@H](CCC(N)=O)C(=O)N[C@H](CCCCN)C(=O)N2CCC[C@@H]2C(=O)N[C@H](CC(=O)O)C(=O)N[C@H](CC(C)C)C(=O)N1)C(=O)O [Example 147, c(D-Cys-D-Gln-D-Ile-D-Trp-D-Lys-D-Gln-D-Lys-D-Pro-D-Asp-D-Leu-D-Cys)-D-Asp-Lys(Nε-octanoyl)-OH] (H-[dC][dQ][dI][dW][dK][dQ][dK][dP][dD][dL][dC][dD]K(Octanoyl)-OH; disulfide 1-11)",EC50,[1],500 nM
same,v IL-8 inhibition (%),[2],29.0%
"CCCCCCCC(=O)NCCCC[C@H](NC(=O)[C@H]1CSSC[C@@H](N)C(=O)N[C@H](CCC(N)=O)C(=O)N[C@H]([C@H](C)CC)C(=O)N[C@H](Cc2c[nH]c3ccccc23)C(=O)N[C@H](CCCCN)C(=O)N[C@H](CCC(N)=O)C(=O)N[C@H](CCCCN)C(=O)N2CCC[C@@H]2C(=O)N[C@H](CC(=O)O)C(=O)N[C@H](CC(C)C)C(=O)N1)C(=O)O [Example 149, c(D-Cys-D-Gln-D-Ile-D-Trp-D-Lys-D-Gln-D-Lys-D-Pro-D-Asp-D-Leu-D-Cys)-Lys(Nε-octanoyl)-OH] (H-[dC][dQ][dI][dW][dK][dQ][dK][dP][dD][dL][dC]K(Octanoyl)-OH; disulfide 1-11)",EC50,[1],66 nM
same,v IL-8 inhibition (%),[2],106.2%
"CCCCCCCC(=O)NCCCC[C@H](NC(=O)[C@@H](CCC(=O)O)NC(=O)[C@H](NC(=O)[C@H]1CSSC[C@@H](N)C(=O)N[C@H](CCC(N)=O)C(=O)N[C@H]([C@H](C)CC)C(=O)N[C@H](Cc2c[nH]c3ccccc23)C(=O)N[C@H](CCCCN)C(=O)N[C@H](CCC(N)=O)C(=O)N[C@H](CCCCN)C(=O)N2CCC[C@@H]2C(=O)N[C@H](CC(=O)O)C(=O)N[C@H](CC(C)C)C(=O)N1)C(C)C)C(=O)O [Example 150, c(D-Cys-D-Gln-D-Ile-D-Trp-D-Lys-D-Gln-D-Lys-D-Pro-D-Asp-D-Leu-D-Cys)-D-Val-D-Glu-Lys(Nε-octanoyl)-OH] (H-[dC][dQ][dI][dW][dK][dQ][dK][dP][dD][dL][dC][dV][dE]K(Octanoyl)-OH; disulfide 1-11)",EC50,[1],33 nM
same,v IL-8 inhibition (%),[2],100.5%
